Test results taken from PMC5005324, “Unique Footprint in the scl1.3 Locus Affects Adhesion and Biofilm Formation of the Invasive M3-Type Group A Streptococcus” (Frontiers in Cellular and Infection Microbiology, 2016).
Bridge positions count the residues as written; N and C are the ends. Ends that are not written are not given here.

What was measured:
[1] = molecular target: rScl1.3FL; assay: Tryptophan fluorescence quenching binding assay in solution; parameters: species or system Streptococcus pyogenes (M3-type GAS, MGAS315); conditions: rScl1.3FL 30 μM, peptide 0-300 μM, 25.0°C, excitation 298 nm, emission 333 nm; 1:1 model; duplicates
Procedure: rScl1.3FL protein, at a concentration of 30 μM, was incubated with increasing concentrations of C-C′ cyclic peptide (0–300 μM) at 25.0°C, using an excitation wavelength of 298.0 nm and a fluorescence emission wavelength ranging from 300 to 400 nm. The acquisition parameters were set as follows: excitation and emission slits at 5 nm; 120 nm/min scan rate; 1.00 nm data interval averaging time at 0.500 s, PMT voltage at “high.” Fluorescence values were recorded at 333 nm, and subtracted from the fluorescence intensity of the ligand-free protein, generating −Δfluorescence. The −Δfluorescence values were plotted against the peptide concentration (Williamson, [2013]). Experiments were carried out in duplicates. A control assay was carried out employing the buffer as titrant to assess that the dilution effect was under 3%, not affecting the results.

[2] = molecular target: rScl1.3FL; assay: Surface plasmon resonance binding of C-C′ cyclic peptide to immobilized rScl1.3FL; parameters: species or system Streptococcus pyogenes (M3-type GAS, MGAS315); conditions: Biacore 3000, 25°C; rScl1.3FL immobilized on streptavidin chip (~100 RU); peptide 10-500 μM; HBS buffer pH 7.4; 1:1 Langmuir model; duplicates; read-out: dissociation constant KD (SPR)
Procedure: Real time binding assays were performed at 25°C on a Biacore 3000 Surface Plasmon Resonance (SPR) instrument (GE Healthcare). For immobilization, rScl1.3FL protein containing the C-terminal Strep-tag II was injected at a concentration of 40 μM on streptavidin-coated sensor chip, SA Biacore, until the desired level of immobilization was achieved (averaged value of 100 RU). Binding assays were carried out by injecting the C-C′ cyclic peptide at concentrations ranging between 10 and 500 μM. Experiments were carried out in HBS buffer (10 mM HEPES, 150 mM NaCl, 3 mM EDTA, pH 7.4). The association phase (kon) was followed for 270 s, whereas the dissociation phase (koff) was followed for 300 s. The reference chip sensorgrams were subtracted from sample sensorgrams. Experiments were carried out in duplicates. Kinetic parameters were estimated assuming a 1:1 Langmuir binding model and using version 4.1 Evaluation Software (GE Healthcare).

[3] = molecular target: recombinant full-length Scl1.3FL protein (streptococcal collagen-like protein 1, M3-type, repaired allele) (Streptococcus pyogenes (group A Streptococcus), M3-type strain MGAS315); assay: other fluorescence titration; tryptophan fluorescence quenching in solution; rScl1.3FL at 30 μM with 0-300 μM C-C′ cyclic peptide, 25.0°C, excitation 298 nm, read at 333 nm; 1:1 model
[4] = molecular target: recombinant full-length Scl1.3FL protein (streptococcal collagen-like protein 1, M3-type, repaired allele) (Streptococcus pyogenes (group A Streptococcus), M3-type strain MGAS315); assay: SPR; Biacore 3000, 25°C; rScl1.3FL with C-terminal Strep-tag II immobilised on a streptavidin-coated SA chip (about 100 RU); C-C′ cyclic peptide injected at 10-500 μM; HBS buffer (10 mM HEPES, 150 mM NaCl, 3 mM EDTA, pH 7.4); 1:1 Langmuir model

Molecule: CRVTYSSPEDGIHELFC (disulfide 1-17 (inferred)) [C-C′ cyclic peptide, Disulfide-cyclised, acetylated and amidated peptide mimicking the C-C′ β-hairpin of the EDA domain of cellular fibronectin]
- Kd [1]: 44.5 ± 9 µM
- Kd [2]: 63.3 µM

B1: C-C′ cyclic peptide (EDA-derived, mimics the C-C′ β-hairpin of the extra domain A of cellular fibronectin) (peptide)
peptide: Ac-CRVTYSSPEDGIHELFC-NH2
modifications: disulfide 1-17
SMILES: CC[C@H](C)[C@@H]1NC(=O)CNC(=O)[C@H](CC(=O)O)NC(=O)[C@H](CCC(=O)O)NC(=O)[C@@H]2CCCN2C(=O)[C@H](CO)NC(=O)[C@H](CO)NC(=O)[C@H](Cc2ccc(O)cc2)NC(=O)[C@H]([C@@H](C)O)NC(=O)[C@H](C(C)C)NC(=O)[C@H](CCCNC(=N)N)NC(=O)[C@@H](NC(C)=O)CSSC[C@@H](C(N)=O)NC(=O)[C@H](Cc2ccccc2)NC(=O)[C@H](CC(C)C)NC(=O)[C@H](CCC(=O)O)NC(=O)[C@H](Cc2c[nH]cn2)NC1=O
- Kd [3]: 44.5 µM
- Kd [4]: 63.3 µM
